The subject of this assay is 188146-221-R-J1-PDC complex spheroid viability. The experiment in a line: Anticancer human tumor 188146-221-R-J1-PDC patient-derived colon adenocarcinoma cell line growth inhibition [POLQ]. The note with it: for viability, T/C: stronger effect = lower value; for IC50: curve of compound. As for the experimental part:
Multicellular complex tumor spheroid response to Polymerase (POL) inhibitors (novobiocin, ART-558, RP6685) in combination with a variety of drugs and investigational agents in selected tumor cell lines
The POL inhibitors (novobiocin, ART-558, and RP6685) were evaluated both individually and in combination with standard of care and investigational anticancer small molecules within a complex spheroid model of solid tumors. . Complex spheroids include a stromal component modeled by human endothelial cells (HUVEC) and fibroblasts modeled by human mesenchymal stem cells (MSCs). The concentration ranges selected for each drug and investigational agent were based upon clinically achievable concentrations if the clinical Cmax of the agent was known.
Compounds. The drugs and investigational agents: novobiocin (NSC847541), ART-558 (NSC835418), RP-6685 (NSC848927), peposertib (NSC802822), ceralasertib (NSC780249), elimusertib (NSC800525), camonsertib (NSC841442), AZD-1390 (NSC803789), olaparib (NSC753686), talazoparib (NSC767125), rucaparib (NSC756644), sotorasib (NSC818433), MRTX-1133 (NSC836407), SN-38 (NSC673596), topotecan (NSC609699), epotoside (NSC141540), doxorubicin (NSC123127), gemcitabine (NSC613327), 5-fluorouracil (NSC19893), paclitaxel (NSC125973), vemurafenib (NSC761431), MSA-2 (NSC828583), SN-011 (NSC837082), adavosertib (NSC754352), prexasertib (NSC758257), carboplatin (NSC241240) and oxaliplatin (NSC266046), were obtained from the National Cancer Institute (NCI) Developmental Therapeutics Program Chemical Repository (21). The FDA-approved anticancer drug set is available from the Developmental Therapeutics Program at https://dtp.cancer.gov/organization/dscb/obtaining/. […] The stock solutions were prepared in dimethyl sulfoxide (DMSO, Sigma-Aldrich, St. Louis, MO, cat. D2650), except for the platinum compounds which were prepared in saline (Quality Biological, Gaithersburg, MD, cat. 114-055-101), at 800-fold the tested concentration and stored at -70 degrees C prior to their use. All drugs and investigational agents were tested over a range starting from a high concentration at or near the clinical Cmax and decreasing in half-log increments. If the clinical Cmax for an agent had not been determined, the highest concentration tested was 10 microM, except for SN-38, which was tested at a high concentration of 1 microM.
Cell Culture. All cells were maintained in an incubator at 37 degrees C and 5% CO2 with 95% humidity. The PDC lines were cultured according to standard operating procedures established by the NCI PDMR (https://pdmr.cancer.gov). Table 3 of the manuscript, lists the cell lines along with the number of the three cell types plated to form the mct-spheroids and media for tumor cell growth. After thawing, all PDC lines, except 997537-175-T-J1-PDC and 415267-285-R-J2-PDC, were cultured in Matrigel-coated flasks prepared with a working solution of 1X Ham's F-12 nutrient mix, without supplementation (Thermo Fisher Scientific, cat. 11765054), 100 U/mL penicillin-streptomycin (Thermo Fisher Scientific, cat. 15140122), and 2.5% Matrigel (Corning Inc., Corning, NY, cat. 354248) for the first three passages. The two PDC lines 997537-175-T-J1-PDC and 415267-285-R-J2-PDC were cultured on uncoated flasks. The 857933-349-R-J2-PDC line was cultured in 6C/Colon 1B media containing advanced DMEM/F-12 (Thermo Fisher Scientific, cat. 12634028), 10 mM HEPES (Thermo Fisher Scientific, cat. 15630080), 1X GlutaMAX supplement (Thermo Fisher Scientific, cat. 35050061), 0.1 mg/mL primocin (InvivoGen, San Diego, CA, cat. ant-pm-2), 10% defined fetal bovine serum, heat inactivated (HyClone Laboratories Inc., Logan, UT, cat. SH30070.03HI), 50% L-WRN conditioned media (ATCC, cat. CRL-3276), 1.25 mM N-Acetyl-L-cysteine (Sigma-Aldrich, cat. A9165), 10 mM nicotinamide (Sigma-Aldrich, cat. N0636), 1X B-27 supplement (Thermo Fisher Scientific, cat. 17504044), 1X N-2 supplement (Thermo Fisher Scientific, cat. […]

Usually viability, T/C stands for the result in the treated group divided by that in the control group, in per cent. Broadly, the IC50 is the midpoint of a concentration-inhibition curve.

Values joined by “and” are separate entries in the source; they are usually repeats but may differ in a detail not shown here. Equal values may be shown once.
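Also: spheroids exposed to compounds for seven days.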

Take `C=CC(=O)N1CCN(c2nc(=O)n(-c3c(C)ccnc3C(C)C)c3nc(-c4c(O)cccc4F)c(F)cc23)C(C)C1` (stereo not given): the IC50 is over 10000 nM. The viability, T/C (compound 0.0316 µM) is 113% and 101% and 99.7%. Besides, the viability, T/C (compound 0.1 µM) was 104% and 89.7% and 107%. Further, the viability, T/C (compound 0.316 µM) was 95.9% and 90.8% and 87.1%. Further, the viability, T/C (compound 1 µM) was 109% and 113% and 108%. In addition, the viability, T/C (compound 3.16 µM) was 92.2% and 92.1% and 101%. Moreover, for the setting “compound 10 µM”, the viability, T/C is 68% and 102% and 77.7%.

For the molecule `C=CCn1c(=O)c2cnc(Nc3ccc(N4CCN(C)CC4)cc3)nc2n1-c1cccc(C(C)(C)O)n1`, the IC50 is over 1000 nM. The viability, T/C (compound 0.00316 µM) is 96.3% and 101% and 120%. The viability, T/C (compound 0.01 µM) is 104% and 117% and 103%. Moreover, for the setting “compound 0.0316 µM”, the viability, T/C is 94.6% and 104% and 95.5%. Also, the viability, T/C (compound 0.1 µM) is 98.4% and 100% and 113%. Moreover, the viability, T/C (compound 0.316 µM) was 99% and 117% and 98.4%. Besides, the viability, T/C (compound 1 µM) was 60.4% and 62.4% and 59%.

With `CC(=O)O[C@H]1C(=O)[C@@]2(C)[C@H]([C@H](OC(=O)c3ccccc3)[C@]3(O)C[C@H](OC(=O)[C@H](O)[C@@H](NC(=O)c4ccccc4)c4ccccc4)C(C)=C1C3(C)C)[C@]1(OC(C)=O)CO[C@@H]1C[C@@H]2O`, the IC50 was 12.2 nM and 13.3 nM and 17.4 nM. Moreover, the viability, T/C (compound 0.00949 µM) is 58.2% and 63% and 74.9%. Moreover, the viability, T/C (compound 0.03 µM) is 20.7% and 18.6% and 27.6%. Under “compound 0.0949 µM”, the viability, T/C is 13.3% and 12.8% and 9.47%. Further, the viability, T/C (compound 0.3 µM) is 11.7% and 11.9% and 11.2%. Further, the viability, T/C (compound 0.949 µM) was 15.4% and 12.2% and 9.82%. Besides, where the note is “compound 3 µM”, the viability, T/C was 13.5% and 12.8% and 9.87%.

For the molecule `CC(C)n1c(=O)n(C)c2cnc3cc(F)c(-c4ccc(OCCCN5CCCCC5)nc4)cc3c21`, the IC50 is over 10000 nM. Moreover, the viability, T/C (compound 0.0316 µM) was 96.9% and 102% and 108%. Also, under “compound 0.1 µM”, the viability, T/C is 111% and 96.7% and 100%. Moreover, where the note is “compound 0.316 µM”, the viability, T/C was 88.3% and 89.4% and 92.5%. Moreover, where the note is “compound 1 µM”, the viability, T/C is 105% and 101% and 110%. The viability, T/C (compound 3.16 µM) was 104% and 106% and 88.8%. In addition, the viability, T/C (compound 10 µM) was 77% and 95.2% and 71.2%.

As for `CC1COCCN1c1cc(-c2ccnn2C)c2ccnc(-c3ccn[nH]3)c2n1` (stereo not given), the IC50 is 239 nM and 230 nM and 198 nM. In addition, the viability, T/C (compound 0.0316 µM) is 86.5% and 92.4% and 75%. In addition, the viability, T/C (compound 0.1 µM) was 74.4% and 67.1% and 60.5%. The viability, T/C (compound 0.316 µM) was 42.4% and 42.7% and 43.7%. Where the note is “compound 1 µM”, the viability, T/C is 19.7% and 27.9% and 21.6%. Also, the viability, T/C (compound 3.16 µM) was 17% and 16.9% and 14.9%. In addition, where the note is “compound 10 µM”, the viability, T/C was 14.1% and 11.3% and 13.9%.

Turning to `CC1COCCN1c1cc(C2(S(C)(=N)=O)CC2)nc(-c2ccnc3[nH]ccc23)n1` (stereo not given), the IC50 is 5050 nM and 4620 nM and 4330 nM. For the same molecule, the viability, T/C (compound 0.0316 µM) was 100% and 105% and 99.8%. Also, the viability, T/C (compound 0.1 µM) is 95.1% and 99.5% and 101%. The viability, T/C (compound 0.316 µM) is 89.3% and 114% and 98%. The viability, T/C (compound 1 µM) was 94.8% and 91.6% and 89.8%. Besides, where the note is “compound 3.16 µM”, the viability, T/C is 68.1% and 61.6% and 60.5%. Further, the viability, T/C (compound 10 µM) is 23.7% and 27.7% and 21.9%.

On to `CCCS(=O)(=O)Nc1ccc(F)c(C(=O)c2c[nH]c3ncc(-c4ccc(Cl)cc4)cc23)c1F`, for which the half-inhibitory concentration (IC50) is 7790 nM and 7060 nM and 5830 nM. Further, the viability, T/C (compound 0.0316 µM) was 104% and 98.2% and 96.2%. For the setting “compound 0.1 µM”, the viability, T/C is 108% and 92.2% and 102%. Also, the viability, T/C (compound 0.316 µM) is 111% and 95.7% and 82.7%. Moreover, the viability, T/C (compound 1 µM) is 90.1% and 79.7% and 80.1%. In addition, the viability, T/C (compound 3.16 µM) is 83.9% and 85.2% and 81.8%. The viability, T/C (compound 10 µM) is 40.6% and 36.2% and 25.4%.

`CC[C@@]1(O)C(=O)OCc2c1cc1n(c2=O)Cc2cc3c(CN(C)C)c(O)ccc3nc2-1`: the IC50 is over 100 nM. In addition, the viability, T/C (compound 0.000316 µM) is 101% and 91.4% and 104%. For the setting “compound 0.001 µM”, the viability, T/C is 99.7% and 100% and 110%. Further, the viability, T/C (compound 0.00316 µM) was 87.8% and 92.4% and 88.8%. Besides, the viability, T/C (compound 0.01 µM) was 103% (2×) and 107%. Also, the viability, T/C (compound 0.0316 µM) is 101% and 92.7% and 97.3%. Moreover, the viability, T/C (compound 0.1 µM) is 71.1% and 63.3% and 63.1%.

For `CCc1c2c(nc3ccc(O)cc13)-c1cc3c(c(=O)n1C2)COC(=O)[C@]3(O)CC`, the IC50 is 20.9 nM and 25.1 nM and 19 nM. The viability, T/C (compound 0.00316 µM) was 98.1% and 104% and 88.5%. The viability, T/C (compound 0.01 µM) was 73.8% and 73.1% and 74.3%. The viability, T/C (compound 0.0316 µM) was 35.4% and 45.1% and 29.7%. The viability, T/C (compound 0.1 µM) was 18% and 23.1% and 19.6%. For the same molecule, for the setting “compound 0.316 µM”, the viability, T/C was 12% and 12.2% and 13.3%. In addition, the viability, T/C (compound 1 µM) is 6.11% and 8.93% and 6.3%.

For the molecule `CNCc1ccc(-c2[nH]c3cc(F)cc4c3c2CCNC4=O)cc1`, the IC50 was over 10000 nM. For the same molecule, the viability, T/C (compound 0.0316 µM) was 111% and 108% and 115%. Also, under “compound 0.1 µM”, the viability, T/C was 108% and 97.9% and 106%. The viability, T/C (compound 0.316 µM) is 102% and 109% and 99.4%. Moreover, where the note is “compound 1 µM”, the viability, T/C is 105% and 104% and 103%. For the setting “compound 3.16 µM”, the viability, T/C is 112% and 105% and 113%. For the same molecule, under “compound 10 µM”, the viability, T/C is 100% and 99.3% and 95.5%.
